Counter-ions that a name gives are not always drawn.
melting point [°C]	SMILES
121	CC1(C)CC(=O)N(CC(COc2ccc(-c3ccc(C#N)cc3)cc2)N(O)C=O)C(=O)C1 (stereo not shown) (as salt: potassium) [Example 50, N-[1-[[(4′-cyano[1,1′-biphenyl]-4-yl)oxy]methyl]-2-(4,4-dimethyl-2,6-dioxo-1-piperidinyl)ethyl]-N-hydroxyformamide]
133 to 135	N#Cc1ccc(-c2ccc(OCC(COc3ccccc3)N(O)C=O)cc2)cc1 (racemic) [Example 1, (±)-N-[1-[[(4′-cyano-[1,1′-biphenyl]-4-yl)oxy]methyl]-2-phenoxyethyl]-N-hydroxyformamide]
199 to 202	N#Cc1ccc(-c2ccc(OCC(CN3C(=O)c4ccccc4C3=O)N(O)C=O)cc2)cc1 (racemic) [Example 3, (±)-N-[1-[[(4′-cyano-[1,1′-biphenyl]-4-yl)oxy]methyl]-2-(2,3-dihydro-1,3-dioxo-1H-isoindol-2-yl)ethyl]-N-hydroxyformamide]
96 to 98	CCC(C)C(COc1ccc(-c2ccc(C#N)cc2)cc1)N(O)C=O (racemic) [Example 8, (±)-N-[1-[[(4′-cyano-[1,1′-biphenyl]-4-yl)oxy]methyl]-2-methylbutyl]-N-hydroxyformamide]
105 to 108	CCCCC(COc1ccc(-c2ccc(C#N)cc2)cc1)N(O)C=O (racemic) [Example 9, (±)-N-[1-[[(4′-cyano-[1,1′-biphenyl]-4-yl)oxy]methyl]pentyl]-N-hydroxyformamide]
173 to 175	Cc1ccc(CC(COc2ccc(-c3ccc(C#N)cc3)cc2)N(O)C=O)cc1 (racemic) [Example 10, (±)-N-[1-[[(4′-cyano-[1,1′-biphenyl]-4-yl)oxy]methyl]-2-(4-methylphenyl)ethyl]-N-hydroxyformamide]
194 to 196	N#Cc1ccc(-c2ccc(OCC(c3ccc(F)cc3)N(O)C=O)cc2)cc1 (racemic) [Example 11, (±)-N-[2-[(4′-cyano-[1,1′-biphenyl]-4-yl)oxy]-1-(4-fluorophenyl)ethyl]-N-hydroxyformamide]
141 to 144	CC(COc1ccc(-c2ccc(C#N)cc2)cc1)N(O)C=O (racemic) [Example 13, (±)-N-[1-[[(4′-cyano-[1,1′-biphenyl]-4-yl)oxy]methyl]ethyl]-N-hydroxyformamide]
186.5 to 188.8	O=CN(O)C(CS(=O)(=O)c1ccc(-c2ccc(C(F)(F)F)cc2)cc1)c1cccnc1 (racemic) [Example 120, (±)-N-hydroxy-N-[1-(3-pyridinyl)-2-[[4′-(trifluoromethyl)[1,1′-biphenyl]-4-yl]sulfonyl]ethyl]formamide]
174.6 to 175.2	CC(CS(=O)(=O)c1ccc(-c2ccc(C(F)(F)F)cc2)cc1)N(O)C=O (racemic) [Example 122, (±)-N-hydroxy-N-[1-methyl-2-[[4′-(trifluoromethyl)[1,1′-biphenyl]-4-yl]sulfonyl]ethyl]formamide]
168.5 to 168.9	O=CN(O)C(CS(=O)(=O)c1ccc(-c2ccc(C(F)(F)F)cc2)cc1)c1ccccn1 (racemic) [Example 123, (±)-N-hydroxy-N-[1-(2-pyridinyl)-2-[[4′-(trifluoromethyl) [1,1′-biphenyl]-4-yl]sulfonyl]ethyl]formamide]
185.6 to 187.3	CC1(C)CC(=O)N(CC(CS(=O)(=O)c2ccc(-c3ccc(C(F)(F)F)cc3)cc2)N(O)C=O)C(=O)C1 (racemic) [Example 124, (±)-N-[1-[(4,4-dimethyl-2,6-dioxo-1-piperidinyl)methyl]-2-[[4′-(trifluoromethyl)[1,1′-biphenyl]-4-yl]sulfonyl]ethyl]-N-hydroxyformamide]
186.5 to 188.8	O=CN(O)C(CCO)CS(=O)(=O)c1ccc(-c2ccc(C(F)(F)F)cc2)cc1 (racemic) [Example 125, (±)-N-hydroxy-N-[3-hydroxy-1-[[[4′-(trifluoromethyl)[1,1′-biphenyl]-4-yl]sulfonyl]methyl]propyl]formamide]
175.3 to 176.3	COCC(CS(=O)(=O)c1ccc(-c2ccc(C(F)(F)F)cc2)cc1)N(O)C=O (racemic) [Example 126, (±)-N-hydroxy-N-[1-(methoxymethyl)-2-[[4′-(trifluoromethyl)[1,1′-biphenyl]-4-yl]sulfonyl]ethyl]formamide]
159.5 to 160.5	O=CN(O)C(CS(=O)(=O)c1ccc(-c2ccc(C(F)(F)F)cc2)cc1)c1ccc2c(c1)OCO2 (racemic) [Example 127, (±)-N-[1-(1,3-benzodioxol-5-yl)-2-[[4′-(trifluoromethyl)[1,1′-biphenyl]-4-yl]sulfonyl]ethyl]-N-hydroxyformamide]
138.9 to 140.3	O=CN(O)C(CCCO)CS(=O)(=O)c1ccc(-c2ccc(C(F)(F)F)cc2)cc1 (racemic) [Example 128, (±)-N-hydroxy-N-[4-hydroxy-1-[[[4′-(trifluoromethyl)[1,1′-biphenyl]-4-yl]sulfonyl]methyl]butyl]formamide]
137.1 to 138.5	COCOc1ccc(C(CS(=O)(=O)c2ccc(-c3ccc(C(F)(F)F)cc3)cc2)N(O)C=O)cc1 (racemic) [Example 129, (±)-N-hydroxy-N-[1-[4-(methoxymethoxy)phenyl]-2-[[4′-(trifluoromethyl)[1,1′-biphenyl]-4-yl]sulfonyl]ethyl]formamide]

melting point [°C]	SMILES
115 to 117	O=CN(O)C(CO)CS(=O)(=O)c1ccc(Oc2ccc(OC(F)(F)F)cc2)cc1 (racemic) [Example 138, (±)-N-hydroxy-N-[1-(hydroxymethyl)-2-[[4-[4-(trifluoromethoxy)phenoxy]phenyl]sulfonyl]ethyl]formamide]
165 to 167	CS(=O)(=O)c1ccc(-c2ccc(S(=O)(=O)CC(CO)N(O)C=O)cc2)cc1 (racemic) [Example 148, (±)-N-hydroxy-N-[1-(hydroxymethyl)-2-[[4′-(methylsulfonyl)[1,1′-biphenyl]-4-yl]sulfonyl]ethyl]formamide]
161 to 162	CSc1ccc(-c2ccc(S(=O)(=O)CC(CO)N(O)C=O)cc2)cc1 (racemic) [Example 150, (±)-N-hydroxy-N-[1-(hydroxymethyl)-2-[[4′-(methylthio)[1,1′-biphenyl]-4-yl]sulfonyl]ethyl]formamide]
167 to 168	O=CN(O)C(CO)CS(=O)(=O)c1ccc(-c2ccc(OC(F)(F)F)cc2)cc1 (racemic) [Example 151, (±)-N-hydroxy-N-[1-(hydroxymethyl)-2-[[4′-(trifluoromethoxy)[1,1′-biphenyl]-4-yl]sulfonyl]ethyl]formamide]
153 to 154	O=CN(O)C(CO)CS(=O)(=O)c1ccc(-c2ccc(Cl)cc2)cc1 (racemic) [Example 152, (±)-N-hydroxy-N-[1-(hydroxymethyl)-2-[(4′chloro[1,1′-biphenyl]-4-yl)sulfonyl]ethyl]formamide]
141 to 143	CN1C(=O)N(CC(CS(=O)(=O)c2ccc(Oc3ccc(C(F)(F)F)cc3)cc2)N(O)C=O)C(=O)C1(C)C (racemic) [Example 153, (±)-N-[1-[(2,5-dioxo-3,4,4-trimethyl-1-imidazolidinyl)methyl]-2-[[4-[4-(trifluoromethyl)phenoxy]phenyl]sulfonyl]ethyl]-N-hydroxyformamide]
116.4 to 117.6	O=CN(O)C(CS(=O)(=O)c1ccc(-c2ccc(OC(F)(F)F)cc2)cc1)c1ccccn1 (racemic) [Example 186, (±)-N-hydroxy-N-[1-(2-pyridinyl)-2-[[4′-(trifluoromethoxy)[1,1′-biphenyl]-4-yl]sulfonyl]ethyl]formamide]
142 to 145	N#Cc1ccc(-c2ccc(OCCN(O)C=O)cc2)cc1 [Example 15, N-[2-[(4′-cyano-[1,1′-biphenyl]-4-yl)oxy]ethyl]-N-hydroxyformamide]
130 to 132	CN1C(=O)N(CC(COc2ccc(-c3cccc(C#N)c3)cc2)N(O)C=O)C(=O)C1(C)C (stereo not shown) [Example 39, N-[1-[[(3′-cyano[1,1′-biphenyl]-4-yl)oxy]methyl]-2-(3,4,4-trimethyl-2,5-dioxo-1-imidazolidinyl)ethyl]-N-hydroxyformamide]
172 to 174	CSc1ccc(-c2ccc(OCC(CN3C(=O)N(C)C(C)(C)C3=O)N(O)C=O)cc2)cc1 (stereo not shown) [Example 40, N-[1-[[[4′-(methylthio)[1,1′-biphenyl]-4-yl]oxy]methyl]-2-(3,4,4-trimethyl-2,5-dioxo-1-imidazolidinyl)ethyl]-N-hydroxyformamide]
202 to 204	CC1(C)NC(=O)N(CCC(COc2ccc(-c3ccc(C#N)cc3)cc2)N(O)C=O)C1=O (stereo not shown) [Example 47, N-[1-[[(4′-cyano[1,1′-biphenyl]-4-yl)oxy]methyl]-3-(4,4-dimethyl-2,5-dioxo-1-imidazolidinyl)propyl]-N-hydroxyformamide]
128	N#Cc1cccc(-c2ccc(OCC(CN3C(=O)CCC3=O)N(O)C=O)cc2)c1 (stereo not shown) [Example 49, N-[1-[[(3′-cyano[1,1′-biphenyl]-4-yl)oxy]methyl]-2-(2,5-dioxo-1-pyrrolidinyl)ethyl]-N-hydroxyformamide]
178 to 180	CC(CS(=O)(=O)c1ccc(-c2ccc(Cl)cc2)cc1)N(O)C=O (stereo not shown) [Example 72, N-[1-[[(4′-chloro[1,1′-biphenyl]-4-yl)sulfonyl]methyl]ethyl]-N-hydroxyformamide]
200 to 201	CC(CS(=O)(=O)c1ccc(-c2ccc3c(c2)OCO3)cc1)N(O)C=O (stereo not shown) [Example 73, N-[1-[[[4-(1,3-benzodioxol-5-yl)phenyl]sulfonyl]methyl]ethyl]-N-hydroxyformamide]
144 to 145	CC(CS(=O)(=O)c1ccc(Oc2ccc(Cl)cc2)cc1)N(O)C=O (stereo not shown) [Example 74, N-[1-[[[4-(4-chlorophenoxy)phenyl]sulfonyl]methyl]ethyl]-N-hydroxyformamide]
199 to 200	CCC(CS(=O)(=O)c1ccc(-c2ccc(OC)cc2)cc1)N(O)C=O (stereo not shown) [Example 75, N-[1-[[(4′-methoxyl[1,1′-biphenyl]-4-yl)sulfonyl]methyl]propyl]-N-hydroxyformamide]
172	O=CN(O)C(COCc1ccccc1)CS(=O)(=O)c1ccc(-c2ccc(C(F)(F)F)cc2)cc1 (stereo not shown) [Example 77, N-[1-[(phenylmethoxy)methyl]-2-[[4′-(trifluoromethyl)[1,1′-biphenyl]-4-yl]sulfonyl]ethyl]-N-hydroxyformamide]

Source: US20020007060A1, “Reverse hydroxamate inhibitors of matrix metalloproteinases” (priority 1998, published 2002)
